In the supplement of paper PMC11451515:

How the values were obtained:
Settings in all cases: 48 h
NOMO1 [1] = assay: cell viability relative to DMSO control; higher = less cytotoxic
Outline: (§1)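 Viability was expressed as a per-plate percentage of DMSO wells, with cell-free wells as background. Leukemia cells (NOMO1 or SEM at 500 cells/well, P12-Ichikawa at 1000 cells/well) were adapted for at least four passages in each medium and seeded in 1536-well plates (5 μl). Library compounds in DMSO were pin-dosed over an 11-point threefold series from 47 μM to 0.79 nM, and CellTiter-Glo One luminescence was read after 48 h at 37°C.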

P12-Ichikawa [2] = assay: as above
Outline: as §1

SEM cells [3] = assay: as above
Outline: as §1

NOMO1 [4] = assay: AUC of viability dose-response curve (% viability x log10 dose units); higher = less sensitive
Outline: (§2)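 Leukemia cells adapted to each medium (500 or 1000 cells/well, 1536-well plates) were exposed to library compounds in DMSO for 48 h at 37°C at 11 threefold doses, 47 μM to 0.79 nM. Luminescence by CellTiter-Glo One was normalised per plate to DMSO and cell-free wells, then fitted with a four-parameter log-logistic curve on log10 dose. Curves above full viability were scaled and quality-control failures removed before area under the curve was integrated by trapezoidal rule.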

P12-Ichikawa [5] = assay: as above
Outline: as §2

SEM cells [6] = assay: as above
Outline: as §2

OC1=C(O)C2=C(\C=C/C(=O)O2)C=C1
cell viability [%]
Settings	NOMO1 [1]	P12-Ichikawa [2]	SEM cells [3]
HPLM + 10% dialyzed FBS, 0.000781 µM	102	99	82.7
HPLM + 10% dialyzed FBS, 0.00234 µM	111	104	94.1
HPLM + 10% dialyzed FBS, 0.00702 µM	109	114	90.2
HPLM + 10% dialyzed FBS, 0.0211 µM	116	107	101
HPLM + 10% dialyzed FBS, 0.0632 µM	113	101	65.4
HPLM + 10% dialyzed FBS, 0.19 µM	108	119	102
HPLM + 10% dialyzed FBS, 0.569 µM	103	114	98.4
HPLM + 10% dialyzed FBS, 1.71 µM	109	117	103
HPLM + 10% dialyzed FBS, 5.12 µM	111	114	99.1
HPLM + 10% dialyzed FBS, 15.4 µM	115	107	93.9
HPLM + 10% dialyzed FBS, 46.1 µM	128	81.1	9.29
RPMI 5 mM glucose + 10% FBS, 0.000781 µM	99.7	109	91.8
RPMI 5 mM glucose + 10% FBS, 0.00234 µM	105	115	106
RPMI 5 mM glucose + 10% FBS, 0.00702 µM	105	118	98.1
RPMI 5 mM glucose + 10% FBS, 0.0211 µM	116	110	91.6
RPMI 5 mM glucose + 10% FBS, 0.0632 µM	106	99.4	70
RPMI 5 mM glucose + 10% FBS, 0.19 µM	96.5	113	91.8
RPMI 5 mM glucose + 10% FBS, 0.569 µM	97.3	124	98.3
RPMI 5 mM glucose + 10% FBS, 1.71 µM	110	116	102
RPMI 5 mM glucose + 10% FBS, 5.12 µM	97.1	112	102
RPMI 5 mM glucose + 10% FBS, 15.4 µM	107	109	93.5
RPMI 5 mM glucose + 10% FBS, 46.1 µM	99.4	68	7.55
RPMI 5 mM glucose + 10% dialyzed FBS, 0.000781 µM	105	95.1	83.2
RPMI 5 mM glucose + 10% dialyzed FBS, 0.00234 µM	102	109	101
RPMI 5 mM glucose + 10% dialyzed FBS, 0.00702 µM	108	104	98.9
RPMI 5 mM glucose + 10% dialyzed FBS, 0.0211 µM	107	104	102
RPMI 5 mM glucose + 10% dialyzed FBS, 0.0632 µM	99.8	101	78.8
RPMI 5 mM glucose + 10% dialyzed FBS, 0.19 µM	127	97.5	101
RPMI 5 mM glucose + 10% dialyzed FBS, 0.569 µM	111	98	112
RPMI 5 mM glucose + 10% dialyzed FBS, 1.71 µM	101	107	101
RPMI 5 mM glucose + 10% dialyzed FBS, 5.12 µM	107	105	90.4
RPMI 5 mM glucose + 10% dialyzed FBS, 15.4 µM	110	103	90.3
RPMI 5 mM glucose + 10% dialyzed FBS, 46.1 µM	112	58.3	9.04

AUC of viability dose-response curve
Settings	NOMO1 [4]	P12-Ichikawa [5]	SEM cells [6]
HPLM + 10% dialyzed FBS	454	470	423
RPMI 5 mM glucose + 10% FBS	469	466	430
RPMI 5 mM glucose + 10% dialyzed FBS	465	467	436

NC(=O)c1cnc(N[C@@H]2CCCC[C@@H]2N)nc1Nc1cccc(-n2nccn2)c1
cell viability [%]
Settings	NOMO1 [1]	P12-Ichikawa [2]	SEM cells [3]
HPLM + 10% dialyzed FBS, 0.000781 µM	118	111	105
HPLM + 10% dialyzed FBS, 0.00234 µM	120	117	103
HPLM + 10% dialyzed FBS, 0.00702 µM	123	126	112
HPLM + 10% dialyzed FBS, 0.0211 µM	153	124	111
HPLM + 10% dialyzed FBS, 0.0632 µM	140	122	130
HPLM + 10% dialyzed FBS, 0.19 µM	141	132	120
HPLM + 10% dialyzed FBS, 0.569 µM	154	136	110
HPLM + 10% dialyzed FBS, 1.71 µM	116	128	123
HPLM + 10% dialyzed FBS, 5.12 µM	138	123	96.5
HPLM + 10% dialyzed FBS, 15.4 µM	110	133	44.3
HPLM + 10% dialyzed FBS, 46.1 µM	75	77.6	11.6
RPMI 5 mM glucose + 10% FBS, 0.000781 µM	–	–	84.8
RPMI 5 mM glucose + 10% FBS, 0.00234 µM	–	–	101
RPMI 5 mM glucose + 10% FBS, 0.00702 µM	–	–	125
RPMI 5 mM glucose + 10% FBS, 0.0211 µM	–	–	135
RPMI 5 mM glucose + 10% FBS, 0.0632 µM	–	–	142
RPMI 5 mM glucose + 10% FBS, 0.19 µM	–	–	103
RPMI 5 mM glucose + 10% FBS, 0.569 µM	–	–	125
RPMI 5 mM glucose + 10% FBS, 1.71 µM	–	–	123
RPMI 5 mM glucose + 10% FBS, 5.12 µM	–	–	107
RPMI 5 mM glucose + 10% FBS, 15.4 µM	–	–	40.3
RPMI 5 mM glucose + 10% FBS, 46.1 µM	–	–	10.7
RPMI 5 mM glucose + 10% dialyzed FBS, 0.000781 µM	–	–	122
RPMI 5 mM glucose + 10% dialyzed FBS, 0.00234 µM	–	–	120
RPMI 5 mM glucose + 10% dialyzed FBS, 0.00702 µM	–	–	122
RPMI 5 mM glucose + 10% dialyzed FBS, 0.0211 µM	–	–	146
RPMI 5 mM glucose + 10% dialyzed FBS, 0.0632 µM	–	–	162
RPMI 5 mM glucose + 10% dialyzed FBS, 0.19 µM	–	–	131
RPMI 5 mM glucose + 10% dialyzed FBS, 0.569 µM	–	–	148
RPMI 5 mM glucose + 10% dialyzed FBS, 1.71 µM	–	–	129
RPMI 5 mM glucose + 10% dialyzed FBS, 5.12 µM	–	–	124
RPMI 5 mM glucose + 10% dialyzed FBS, 15.4 µM	–	–	58.3
RPMI 5 mM glucose + 10% dialyzed FBS, 46.1 µM	–	–	34.4

AUC of viability dose-response curve
Settings	NOMO1 [4]	P12-Ichikawa [5]	SEM cells [6]
HPLM + 10% dialyzed FBS	457	468	419
RPMI 5 mM glucose + 10% FBS	457	462	420
RPMI 5 mM glucose + 10% dialyzed FBS	453	471	428

C\C1=C\C(=O)OC2=C1C=CC(=C2)O
cell viability [%]
Settings	NOMO1 [1]	P12-Ichikawa [2]	SEM cells [3]
HPLM + 10% dialyzed FBS, 0.000781 µM	119	122	120
HPLM + 10% dialyzed FBS, 0.00234 µM	129	121	114
HPLM + 10% dialyzed FBS, 0.00702 µM	122	121	126
HPLM + 10% dialyzed FBS, 0.0211 µM	133	122	119
HPLM + 10% dialyzed FBS, 0.0632 µM	120	109	118
HPLM + 10% dialyzed FBS, 0.19 µM	130	116	119
HPLM + 10% dialyzed FBS, 0.569 µM	120	108	128
HPLM + 10% dialyzed FBS, 1.71 µM	118	107	77.1
HPLM + 10% dialyzed FBS, 5.12 µM	113	106	122
HPLM + 10% dialyzed FBS, 15.4 µM	110	102	111
HPLM + 10% dialyzed FBS, 46.1 µM	104	93	109
RPMI 5 mM glucose + 10% FBS, 0.000781 µM	116	112	98.1
RPMI 5 mM glucose + 10% FBS, 0.00234 µM	122	119	118
RPMI 5 mM glucose + 10% FBS, 0.00702 µM	117	115	108
RPMI 5 mM glucose + 10% FBS, 0.0211 µM	111	122	104
RPMI 5 mM glucose + 10% FBS, 0.0632 µM	119	109	118
RPMI 5 mM glucose + 10% FBS, 0.19 µM	122	114	110
RPMI 5 mM glucose + 10% FBS, 0.569 µM	105	107	118
RPMI 5 mM glucose + 10% FBS, 1.71 µM	120	111	87.3
RPMI 5 mM glucose + 10% FBS, 5.12 µM	117	99.9	108
RPMI 5 mM glucose + 10% FBS, 15.4 µM	123	118	97.1
RPMI 5 mM glucose + 10% FBS, 46.1 µM	106	99.1	92.1
RPMI 5 mM glucose + 10% dialyzed FBS, 0.000781 µM	117	122	120
RPMI 5 mM glucose + 10% dialyzed FBS, 0.00234 µM	118	115	119
RPMI 5 mM glucose + 10% dialyzed FBS, 0.00702 µM	120	114	146
RPMI 5 mM glucose + 10% dialyzed FBS, 0.0211 µM	118	122	136
RPMI 5 mM glucose + 10% dialyzed FBS, 0.0632 µM	110	120	135
RPMI 5 mM glucose + 10% dialyzed FBS, 0.19 µM	108	108	117
RPMI 5 mM glucose + 10% dialyzed FBS, 0.569 µM	104	114	114
RPMI 5 mM glucose + 10% dialyzed FBS, 1.71 µM	102	104	75.2
RPMI 5 mM glucose + 10% dialyzed FBS, 5.12 µM	109	103	117
RPMI 5 mM glucose + 10% dialyzed FBS, 15.4 µM	113	104	117
RPMI 5 mM glucose + 10% dialyzed FBS, 46.1 µM	90.7	106	115

AUC of viability dose-response curve
Settings	NOMO1 [4]	P12-Ichikawa [5]	SEM cells [6]
HPLM + 10% dialyzed FBS	456	436	452
RPMI 5 mM glucose + 10% FBS	470	457	455
RPMI 5 mM glucose + 10% dialyzed FBS	439	452	434
